A value given as a limit tells only on which side of the number the result lay.

In the case of `NNC(=O)c1ccc2c(c1)C(=C(Cl)Cl)OC(C(Cl)(Cl)Cl)O2` (stereo unspecified), the melting point was 182 to 183 °C.
For `CCCc1nc2c(N)nc3cc(-c4cccc(C(=O)N5CCOCC5)c4)ccc3c2s1` the value was 190 to 193 °C.
For `O=C(NC1CC1)c1cc(Nc2nc(N3CCCC3c3ccccn3)nc3ccoc23)[nH]n1` (stereo unspecified) the value was 238 °C; for `CCN1c2ccccc2CC(C#N)c2ccccc21` (stereo unspecified), 127 to 129 °C.
For `COC(=O)c1c(OC)ccc2ccccc12` the value was 175 to 176 °C; for `Cc1nc2cc(Cn3ccnc3)ccc2n1Cc1cccnc1`, 174 °C.
The compound `Fc1ccc(C(=C(c2ccccc2)c2ccc(OCCN3CCOCC3)cc2)C(F)(F)F)cc1` displayed a melting point of 67 to 69 °C.
The figure for `CCOCc1nc2c(N)nc3c(c2n1NCCCNC(C)=O)CCCC3` is 198 to 200 °C; for `CCOc1cccc2c1Sc1ccccc1C2` it is 95 to 98 °C; for `O=C(C=Cc1ccccc1)Oc1ccc(Br)cc1` it is 113 °C.
For `CC(C)Oc1cc(NC(=O)C2CCCCN2)c(F)cc1Cl` (stereo unspecified) the value was 96 to 98 °C.
For `CC(C)(C)OC(=O)N1CCN(c2c(F)cc(N3CC(CN=[N+]=[N-])OC3=O)cc2F)CC1` (stereo unspecified) the value was 115 to 117 °C.
As for `CC(C)(C)[Si](OCC#Cc1ccc2ncc3c(c2c1)C(O)CCC3)(c1ccccc1)c1ccccc1` (stereo unspecified), the melting point fell in the range of 132 to 133 °C.
The figure for `Cc1cc(N2N=C(c3ccc([N+](=O)[O-])cc3)c3cc4c(cc3CC2C)OCO4)on1` (stereo unspecified) is 179 to 182 °C; for `COc1ccc(N2C(=O)C(=O)c3cc(OC)ccc32)cc1` it is 203 to 205 °C.
The figure for `Cc1ccc(NS(=O)(=O)c2ccc(Cl)nc2)c2[nH]cc(C#N)c12` is 262 to 263 °C; for `CCCN(CCC)C(N)=O` it is 69 °C.
For `O=C(O)COc1ccc2c(c1)Cc1sc(S(=O)(=O)CCC(c3ccccc3)c3ccccc3)nc1-2` the value was 172 to 174 °C; for `COC(=O)C1CCCN(COS(C)(=O)=O)c2c1cc(OCc1ccccc1)c1ccccc21` (stereo unspecified), 130 to 132 °C.
`CCCCCCc1ccc(CCc2cc3c(s2)NC(=S)CN=C3c2ccccc2Cl)cc1`: the melting point is 140 to 145 °C.
The figure for `COC1(C)c2ccc(C#Cc3cc(Cl)ccc3OCC(=O)O)cc2S(=O)(=O)C1(C)C` (stereo unspecified) is 80 to 95 °C; for `NC(=O)c1cc2ccc(F)cc2nc1N` it is 259 to 262 °C; for `COc1ccc(C(C)C)cc1-c1cc(-c2nnnn2C2CCCN(C(=O)OC(C)(C)C)C2)c(O)cc1O` (stereo unspecified) it is 227 to 229 °C.
For `O=c1[nH]c2ccc(C(F)(F)F)cc2[nH]c1=O` the value was 330 °C; for `COC(=O)C(=O)c1cc(O)c(O)c(C#N)c1`, 252 °C; for `CCCCCCC[C@H]1C(=O)OC[C@H](NC(=O)c2nccc(OC)c2O)C(=O)O[C@@H](C)[C@@H]1OC(=O)C(C)C`, 131 to 134 °C.
The figure for `O=C(CCCN1CCN(c2cccc(Cl)c2Cl)CC1)N1CCc2ccccc21` is 134 to 136 °C.
Turning to `COC(=O)c1nc(-c2ccc(Cl)c(OC)c2F)nc(N)c1Br`, the melting point is 173 to 175 °C.
In turn, `COc1cc(C(=O)O)ccc1Oc1ccccc1N` had a melting point of 192 to 194 °C.
The figure for `Cc1oc2c(C)c(C)c(NCc3ccccc3)c(C)c2c1-c1ccc(C(C)C)cc1` is 94 to 95 °C; for `O=C(CCl)Nc1ccc2ncnc(Nc3cccc(I)c3)c2c1` it is greater than 300 °C.
Compound `Oc1ccc2oc(-c3ccc(O)c(F)c3)nc2c1` gave a melting point of 262 to 268 °C.
The figure for `CN(C)CCNC(=O)N1CCN(c2ccc(F)cc2)CC1` is 99 to 101 °C; for `N#Cc1c(=O)[nH]c2cc(Cl)c(Cl)cc2[n+]1[O-]` it is 294 to 296 °C; for `O=C(O)C=Cc1cc(N2CCNCC2)ccc1[N+](=O)[O-]` it is 229 to 237 °C.
For `CC(O)CCCCn1cnc2c1c(=O)n(C)c(=O)n2C` (stereo unspecified) the value was 93 to 94 °C.
For `Cc1nn(-c2ccc([N+](=O)[O-])cc2F)c(=O)[nH]1` the value was 211 to 212 °C; for `Cc1noc(=O)n1C/C(F)=C\CCI`, 58.1 to 58.6 °C.
In the case of `CN1CCCC1CNC(=O)c1cc(S(=O)(=O)N(C)C)cc2c1OCCO2` (stereo unspecified), the melting point lay in the range of 165 to 166 °C.
For `N#Cc1ccc(C=O)c(SCc2ccccc2)c1` the value was 106 to 109 °C; for `CCOC(=O)CCc1cccc(N)c1`, 132 to 135 °C.
With `C=CCOc1ccc(C(=O)c2ccc(Cl)c(S(=O)(=O)N=CN(C)C)c2)c(Cl)c1Cl`, the melting point is 141 to 142 °C.
The figure for `COc1cc(Nc2c(C#N)cnc3ccc(-c4csc(C=O)c4)cc23)c(Cl)cc1Cl` is 233 to 237 °C; for `O=C(O)c1cc(C(=O)O)c2cc(Cc3ccc(F)cc3)cnc2c1O` it is 279 to 282 °C; for `Nc1cc(O)nc(SCc2cccc(F)c2F)n1` it is 218 to 221 °C.
The figure for `COc1ccccc1N1CCN(CC(=O)Nc2ccc3c(c2NC(=O)c2ccc(C)cc2)C(=O)c2ccccc2C3=O)CC1` is 215 to 216 °C; for `C=C(C)C(=O)OCc1ccc(OC2CCCCO2)cc1` (stereo unspecified) it is 36 to 36.7 °C; for `O=C(C=Cc1cccs1)Nc1nnn[nH]1` it is 287 °C.
The figure for `Brc1ccc(-c2cn([C@H]3CN4CCC3CC4)nn2)cc1` is 158 °C.
Consider `OC[C@H](O)COc1nc(Oc2ccc(F)cc2F)nc2[nH]nc(-c3ccccc3Cl)c12`, for which the melting point is 179 to 181 °C.
For `C=NOCc1ccc(CCc2csc(NC(C)=O)n2)cc1` the value was 136 to 137 °C; for `O=C(O)/C=C/c1ccc(Oc2c(-c3ccccc3)c(CCC(F)(F)F)cc3cc(O)ccc23)cc1`, 118 to 120 °C; for `O=C(Nc1ccc(C(=O)N2CCC(O)c3ccccc32)cc1)c1cc(Cl)cc(Cl)c1` (stereo unspecified), 215 to 217 °C.
In the case of `O=c1[nH][nH]c(=O)n1-c1c(F)cc(F)cc1F`, the melting point lay within 221 to 222 °C.
For `COC(=O)c1cc2cc([N+](=O)[O-])c(OCc3ccccc3)cc2[nH]1` the value was 184 to 187 °C.
`O=c1[nH][nH]c(=O)n1CCOc1ccccc1` came in with a melting point of 187 to 189 °C.
For `Cn1cc(-c2cc(-c3cnc(N)c(C(F)(F)F)c3)ccn2)n(-c2ccc(C(C)(C)C#N)cc2)c1=O` the value was 195 °C; for `OCc1cc(N2CCOCC2)c(F)cn1`, 134 to 136 °C; for `N#Cc1ccc(C(=O)N2CCN(C(=O)[C@@H]3CCCN3S(=O)(=O)c3ccc(Cl)c(CBr)c3Cl)CC2)cc1`, 115 °C.
The figure for `O=C(O)c1cccc(NC(=O)C(CS)CCCc2ccccc2)c1` (stereo unspecified) is 134 to 136 °C; for `Cc1[nH]cnc1Cn1nnnc1-c1cccc(Cl)c1Cl` it is 151 to 153 °C.
For `COC(=O)c1cccc2c1Nc1cccc(I)c1C2` the value was 108 to 110 °C; for `O=C1c2ccccc2-c2c1c1ccc([N+](=O)[O-])cc1c(=O)n2CCCNS(=O)(=O)c1ccccc1`, 258 to 259 °C; for `Cc1noc(-c2c3cccc(-c4ccc(Cl)cc4Cl)c3nn2C)n1`, 178 °C.
`OCC1CCc2c([nH]c3ccc(Cl)cc23)C1` (stereo unspecified) displayed a melting point of 168 to 169 °C.
The figure for `Cc1ccccc1C(=O)c1ccccc1C` is 66 to 67 °C.
The figure for `COc1ccnc(N2CCN(C(=S)c3ccccc3)CC2)n1` is 125 to 129 °C.
The figure for `CCCCCS(=O)(=O)NC(=O)CCc1ccc(OCCC2(C)OCCO2)cc1Oc1ncc(C(F)(F)F)cc1Cl` is 96.5 to 97.5 °C; for `Cc1cccc(-c2nc3cccnn3c2-c2ccnc(NC(=O)NC(C)C)c2)c1` it is 193 to 195 °C.
Compound `O=C(Cc1cccc(Br)c1)Nc1ccc(Sc2c(O)c3c(Cl)cc(Cl)cc3[nH]c2=O)cc1` came in with a melting point of 292 to 296 °C.
For `CCOC(=O)c1cc2c(nc1C(=O)OCC)OCC2O` (stereo unspecified) the value was 73 to 77 °C; for `CS(=O)(=O)c1cc(C(=O)O)cc(NCc2ccco2)c1Cl`, 216 °C.
The figure for `BrCc1ncc(Br)cn1` is 55 to 57 °C; for `O=CC(Cl)=Cc1cccc(Oc2ccc([N+](=O)[O-])c([N+](=O)[O-])c2)c1` it is 100 to 101 °C.
On to `COc1cc(S(C)(=O)=O)ccc1-c1nc2cc3c(cc2[nH]1)NC(=O)C3(C)C`, for which the melting point was 235 to 237 °C.
For `CCCC(C=NNC(=O)OCC)c1ccc(Cl)cc1Cl` (stereo unspecified) the value was 127 to 129 °C; for `Nc1cnccc1Oc1ccc(Cl)cc1`, 104 to 106 °C.
`CNc1nc(-c2cccc([N+](=O)[O-])c2)c2cc(OC)c(OC)cc2n1` gave a melting point of 218 to 220 °C.
The figure for `COc1ccc2c(c1)CCC(C(=O)Cl)C2` (stereo unspecified) is 162 to 164 °C.
`Nc1ccc(-c2nc3ccccc3s2)cc1Br`: the melting point lay in the range of 160 to 161 °C.
For `CC1CN(C(=O)Cn2c(=O)n(C)c3nc(-c4ccccc4)ncc32)CC(C)O1` (stereo unspecified) the value was 160 to 161 °C; for `N#Cc1c(N2CCN(C(=O)c3cccs3)CC2)c2cccnc2n(CC2CC2)c1=O`, 189 °C; for `CCCc1c(OCCCSCCO)ccc(C(C)=O)c1O`, 72 to 74 °C.
For `Nc1cc(Nc2cccc(Cl)c2)ncn1` the value was 171 to 172 °C; for `COc1cccc(-c2cnn(-c3cccc(C(=O)O)c3)c2)c1`, 157 to 158 °C; for `COc1ccccc1N1CCc2c1c1cccc(C)c1[nH]c2=O`, 193 to 195 °C.
The figure for `CCCCCCCCCCOc1cc(OCCCCCCCCCC)cc(C(=O)O)c1` is 56 to 58 °C; for `CC(C)(C)OC(=O)N1CCn2c(c(C(N)=O)c(C#N)c2C2CCN(S(C)(=O)=O)CC2)C1` it is 220 °C.
In the case of `CNC(=O)Oc1ccc2c(ccn2Cc2ccncc2)c1`, the melting point came to 170 °C.
The compound `C/C=C/C(=O)NCCn1c(CCCC)nc2c(N)nc3cccnc3c21` showed a melting point of 198 to 200 °C.
`CCC(=O)NCC1CC1c1cccc2nscc12` (stereo unspecified) registered a melting point of 84 to 86 °C.

These data come from a melting point compilation (Tetko et al.; mined from patent text by program, amines drawn as free bases though some values may be those of a salt).
